Measurements reported in publication PMC7592813 (Oncology Research, 2014).
Read-outs that look alike come from different tables or passages of the source.

Molecular target: T1, recombinant ENOX2 (tNOX) (Homo sapiens, UniProt Q16206)
T1 sequence (Q16206 1-610): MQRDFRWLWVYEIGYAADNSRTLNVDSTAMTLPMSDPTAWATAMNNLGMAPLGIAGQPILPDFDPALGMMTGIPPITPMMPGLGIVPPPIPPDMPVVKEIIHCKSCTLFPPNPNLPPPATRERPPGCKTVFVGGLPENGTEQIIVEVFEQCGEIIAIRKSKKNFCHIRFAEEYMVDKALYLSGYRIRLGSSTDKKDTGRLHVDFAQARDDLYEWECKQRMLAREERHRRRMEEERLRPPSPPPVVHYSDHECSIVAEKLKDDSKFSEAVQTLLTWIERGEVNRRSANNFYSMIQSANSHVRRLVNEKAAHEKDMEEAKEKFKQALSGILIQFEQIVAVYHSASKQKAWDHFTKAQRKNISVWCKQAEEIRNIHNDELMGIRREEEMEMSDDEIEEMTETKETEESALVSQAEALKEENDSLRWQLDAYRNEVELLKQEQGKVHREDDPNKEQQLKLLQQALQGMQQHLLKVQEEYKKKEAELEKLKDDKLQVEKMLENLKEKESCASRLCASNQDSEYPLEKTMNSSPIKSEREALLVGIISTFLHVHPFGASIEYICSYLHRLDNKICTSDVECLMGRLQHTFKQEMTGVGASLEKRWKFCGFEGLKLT
Assay: NADH oxidation, A340
Type: biochemical

EC50 (150 µM NADH, 25 mM Tris-MES pH 7.2, 100 µM GSH, 1 mM KCN, 37 °C, inhibition)	EC50	Compound
~50 nM	–	2H-1-benzopyran-7-0,1,3-(4-hydroxyphenyl) [ME-143]
–	330 ± 153 nM	Oc1ccc(C2=Cc3ccc(O)cc3OC2)cc1 [phenoxodiol]
